Measurements as given in the NIST ThermoML archive (doi:10.1021/je0499768).

Legend:
[1] = molar heat capacity at saturation pressure
[2] = Crystal
[3] = Molar enthalpy of transition or fusion; conditions: Crystal

CCCCCO [pentan-1-ol]
[1]
Conditions	molar heat capacity [J/K/mol]
84.35 K, Crystal	65.89
85.06 K, Crystal	66.25
86.86 K, Crystal	67.27
89.74 K, Crystal	68.87
92.58 K, Crystal	70.39
94.72 K, Crystal	71.43
95.39 K, Crystal	71.74
95.42 K, Crystal	71.88
97.19 K, Crystal	72.64
98.27 K, Crystal	73.33
100.1 K, Crystal	74.14
101.12 K, Crystal	74.67
102.99 K, Crystal	75.73
103.99 K, Crystal	76.36
105.87 K, Crystal	77.16
106.86 K, Crystal	77.84
108.76 K, Crystal	78.64
109.74 K, Crystal	79.23
111.65 K, Crystal	79.96
112.62 K, Crystal	80.53
114.54 K, Crystal	81.27
115.51 K, Crystal	81.81
117.45 K, Crystal	82.55
118.41 K, Crystal	83.11
120.35 K, Crystal	83.59
121.31 K, Crystal	84.26
123.26 K, Crystal	85.21
124.22 K, Crystal	85.78
126.17 K, Crystal	86.52
127.13 K, Crystal	87.05
129.09 K, Crystal	87.81
130.04 K, Crystal	88.35
132 K, Crystal	89.11
132.96 K, Crystal	89.63
134.92 K, Crystal	90.35
135.88 K, Crystal	90.9
137.85 K, Crystal	91.65
138.8 K, Crystal	92.19
140.77 K, Crystal	92.89
141.73 K, Crystal	93.48
143.7 K, Crystal	94.19
144.65 K, Crystal	94.77
146.63 K, Crystal	95.55
147.58 K, Crystal	96.12
149.56 K, Crystal	96.87
150.51 K, Crystal	97.45
152.49 K, Crystal	98.21
153.44 K, Crystal	98.8
155.42 K, Crystal	99.58
156.38 K, Crystal	100.2
158.36 K, Crystal	101.02
159.31 K, Crystal	101.61
161.29 K, Crystal	102.48
162.24 K, Crystal	103.05
164.23 K, Crystal	103.98
165.18 K, Crystal	104.56
167.16 K, Crystal	105.55
168.11 K, Crystal	106.11
170.08 K, Crystal	107.17
171.04 K, Crystal	107.72
173.01 K, Crystal	108.87
173.97 K, Crystal	109.43
175.94 K, Crystal	110.7
176.89 K, Crystal	111.3
178.85 K, Crystal	112.7
179.8 K, Crystal	113.33
181.73 K, Crystal	115.01
182.67 K, Crystal	115.64
184.57 K, Crystal	118.07
185.5 K, Crystal	118.77
187.36 K, Crystal	123.84
188.28 K, Crystal	124.56
198.65 K, Liquid	163.65
199.38 K, Liquid	163.9
200.99 K, Liquid	163.99
201.72 K, Liquid	164.4
203.32 K, Liquid	164.43
204.05 K, Liquid	164.85
205.65 K, Liquid	164.91
206.37 K, Liquid	165.31
207.96 K, Liquid	165.4
208.68 K, Liquid	165.79
210.27 K, Liquid	165.93
210.99 K, Liquid	166.35
212.58 K, Liquid	166.46
213.29 K, Liquid	166.86
214.87 K, Liquid	167.08
215.58 K, Liquid	167.46
217.16 K, Liquid	167.65
217.86 K, Liquid	168.06
219.44 K, Liquid	168.24
220.14 K, Liquid	168.68
221.71 K, Liquid	168.88
222.41 K, Liquid	169.28
223.98 K, Liquid	169.49
224.67 K, Liquid	169.98
226.24 K, Liquid	170.19
226.92 K, Liquid	170.74
228.49 K, Liquid	170.97
229.17 K, Liquid	171.45
230.73 K, Liquid	171.69
231.4 K, Liquid	172.08
232.96 K, Liquid	172.37
233.63 K, Liquid	172.91
235.19 K, Liquid	173.18
235.85 K, Liquid	173.67
237.41 K, Liquid	174
238.06 K, Liquid	174.45
239.61 K, Liquid	174.8
240.27 K, Liquid	175.24
241.81 K, Liquid	175.57
242.46 K, Liquid	176.08
244 K, Liquid	176.53
244.65 K, Liquid	177.02
246.19 K, Liquid	177.41
246.83 K, Liquid	177.9
248.36 K, Liquid	178.37
249 K, Liquid	178.81
250.53 K, Liquid	179.33
251.16 K, Liquid	179.81
252.69 K, Liquid	180.35
253.31 K, Liquid	180.73
254.84 K, Liquid	180.78
255.46 K, Liquid	181.29
256.98 K, Liquid	181.89
257.6 K, Liquid	182.33
259.12 K, Liquid	182.97
259.72 K, Liquid	183.42
261.25 K, Liquid	184.11
261.84 K, Liquid	184.56
263.36 K, Liquid	185.17
263.95 K, Liquid	185.84
265.47 K, Liquid	186.38
266.05 K, Liquid	186.93
267.57 K, Liquid	187.55
268.14 K, Liquid	188.12
269.66 K, Liquid	188.85
270.23 K, Liquid	189.24
271.74 K, Liquid	190.03
272.3 K, Liquid	190.52
273.81 K, Liquid	190.93
274.36 K, Liquid	191.79
275.87 K, Liquid	192.5
276.41 K, Liquid	193.06
277.92 K, Liquid	193.85
278.46 K, Liquid	194.4
279.97 K, Liquid	195.18
280.49 K, Liquid	195.74
282 K, Liquid	196.61
282.51 K, Liquid	197.04
284.02 K, Liquid	197.96
284.53 K, Liquid	198.45
286.03 K, Liquid	199.37
286.53 K, Liquid	199.91
288.04 K, Liquid	200.78
288.52 K, Liquid	201.35
290.03 K, Liquid	202.3
290.5 K, Liquid	202.81
292.01 K, Liquid	203.82
292.48 K, Liquid	204.11
293.99 K, Liquid	205.24
294.44 K, Liquid	205.79
295.95 K, Liquid	206.87
296.39 K, Liquid	207.42
297.91 K, Liquid	208.52
298.34 K, Liquid	208.88
299.85 K, Liquid	210.01
300.27 K, Liquid	210.28
300.3 K, Liquid	209.4
300.6 K, Liquid	209.89
300.81 K, Liquid	210.54
301.09 K, Liquid	210.46
301.72 K, Liquid	211.03
302.2 K, Liquid	211.81
303.67 K, Liquid	212.74
304.12 K, Liquid	213.39
305.6 K, Liquid	214.44
306.03 K, Liquid	215.06
307.52 K, Liquid	216.02
307.94 K, Liquid	216.66
309.43 K, Liquid	217.84
309.83 K, Liquid	218.39
311.32 K, Liquid	219.47
311.72 K, Liquid	219.98
313.21 K, Liquid	221.03
313.59 K, Liquid	221.54
315.09 K, Liquid	222.83
315.46 K, Liquid	223.3
316.96 K, Liquid	224.55
317.31 K, Liquid	224.93
318.82 K, Liquid	226.26
319.16 K, Liquid	226.53
320.67 K, Liquid	228
320.99 K, Liquid	228.31
322.52 K, Liquid	229.67
322.82 K, Liquid	229.96
324.36 K, Liquid	231.42
324.65 K, Liquid	231.73
326.19 K, Liquid	233.09
326.46 K, Liquid	233.41
328.01 K, Liquid	234.81
328.27 K, Liquid	235
329.82 K, Liquid	236.6
330.07 K, Liquid	236.82
331.62 K, Liquid	238.27
331.85 K, Liquid	238.73
333.42 K, Liquid	239.94
333.63 K, Liquid	240.3
335.2 K, Liquid	241.58
335.4 K, Liquid	241.97
336.98 K, Liquid	243.24
337.16 K, Liquid	243.65
338.75 K, Liquid	244.92
338.92 K, Liquid	245.3
340.51 K, Liquid	246.6
340.66 K, Liquid	246.9
342.27 K, Liquid	248.02
342.4 K, Liquid	248.57
344.02 K, Liquid	249.71
344.13 K, Liquid	250.3
345.76 K, Liquid	251.26
345.85 K, Liquid	252.05
347.5 K, Liquid	252.83
347.57 K, Liquid	253.58
349.23 K, Liquid	254.25
349.27 K, Liquid	255.13
350.95 K, Liquid	255.52
350.97 K, Liquid	256.62
352.66 K, Liquid	258.17
352.67 K, Liquid	256.89
354.35 K, Liquid	259.96
354.38 K, Liquid	259.82
356.02 K, Liquid	261.44
356.07 K, Liquid	261.38
357.7 K, Liquid	262.72
357.76 K, Liquid	262.85
359.36 K, Liquid	264.29
359.43 K, Liquid	264.36
361.02 K, Liquid	265.62
361.1 K, Liquid	265.85
362.67 K, Liquid	266.89
362.77 K, Liquid	267.17
364.32 K, Liquid	268.43
364.43 K, Liquid	268.78
365.96 K, Liquid	269.86
366.08 K, Liquid	270.13
367.59 K, Liquid	270.92
367.73 K, Liquid	271.33
369.23 K, Liquid	271.93
369.37 K, Liquid	272.76
370.86 K, Liquid	272.95
371.01 K, Liquid	274.05
372.64 K, Liquid	275.14
374.27 K, Liquid	276.38
375.89 K, Liquid	277.43
377.52 K, Liquid	278.66
379.14 K, Liquid	279.32
380.76 K, Liquid	280.36

Conditions	Molar enthalpy of transition or fusion [kcal/mol]	Triple point temperature [K]
[2]	–	195.6
[3]	2.512	–

CCCO [propan-1-ol]
[1], Glass
Conditions	molar heat capacity [J/K/mol]
84.71 K	55.24
86.52 K	56.57
89.38 K	58.64
92.19 K	61.1
94.96 K	66.41

Conditions	Molar enthalpy of transition or fusion [kcal/mol]	Triple point temperature [K]
[2]	–	148.71
[3]	1.291	–
